Source: patent US11878984B2, “Compounds derived from Streptomyces and uses thereof” (KOREA INSTITUTE OF OCEAN SCIENCE & TECHNOLOGY, priority 2018, dated 2024)

What was measured:
[1] = tested on: BV-2 microglial cells; assay: Nitrite assay: LPS-stimulated NO production in BV-2 microglial cells; assay type: cell-based; conditions: for NO production decreased compared to the control group: 100 μM compound
Experimental: (§1) BV-2 microglial cells were cultured in Dulbecco's modified Eagle medium supplemented with 5% Fetal bovine serum and 1% 100 units/mL of penicillin/streptomycin at 37° C. in a humidified 5% CO2 incubator.
For Nitrite assay, the BV-2 microglial cells seeded at a density of 1.25×10^5 cell/each well in 24-well plate were pretreated with various concentrations of compounds 1-4 for 1 h, followed by LPS (200 ng/mL) for 24 h. A range of sodium nitrite dilutions was used to obtain a standard curve with the amount of nitrite in each sample. Absorbance was determined at 540 nm using a microplate reader (Tecan Trading AG).

[2] = tested on: BV-2 microglial cells; assay: MTT assay: cell viability of LPS-stimulated BV-2 microglial cells; assay type: cell-based
Experimental: as §1
The BV-2 microglial cells seeded at a density of 1.25×10^5 cell/each well in 24-well plate were pretreated with various concentration of compounds (12.5, 25, 50, and 100 μM for compounds 1-3 and 1, 2, 4, and 8 μM for compound 4) for 1 h, followed by LPS (200 ng/mL) for 24 h. 20 μL of MTT (2 mg/mL) solution was added to each well. After 1 h, the supernatant was sucked out and crystals of formazan were dissolved in DMSO. Optical density was measured at 550 nm using a microplate reader (Tecan Trading AG) and values were determined in comparison to control cells.

[3] = pretreated 1 h, then LPS (200 ng/mL) 24 h

SMILES | NO production decreased compared to the control group [1, 3] | NO production reduced compared to the control group ([1]; compound at low concentration of 1 to 8 μM, pretreated 1 h, then LPS (200 ng/mL) 24 h) | NO production inhibiting effect ([1]; low concentration of less than 10 μM) | cellular viability ([2]; 1, 2, 4 and 8 μM, pretreated 1 h, then LPS (200 ng/mL) 24 h, MTT, compared to control cells) | cytotoxicity ([2]; low concentration of less than 10 μM, BV-2 microglial cells (FIG. 12))
C/C=C/C=C/CC[C@]12OCC[C@@H]3OC[C@](O)(CO1)[C@@H]32 [Compound 1, (2aS,2a^1R,4aS,7aS)-7a-((3E,5E)-hepta-3,5-diene-1-yl)tetrahydro-2H,6H,1,4,7-trioxacyclopenta[cd]indene-2a(3H)-ol] | about 22% | – | – | – | –
C/C=C/C=C/C=C/[C@]12OCC[C@@H]3OC[C@](O)(CO1)[C@@H]32 [Compound 2, (2aS,2a^1R,4aS,7aS)-7a-((1E,3E,5E)-hepta-1,3,5-triene-1-yl)tetrahydro-2H, 6H,1,4,7-trioxacyclopenta[cd]indene-2a(3H)-ol] | about 25% | – | – | – | –
C/C=C/C=C/CC[C@]12OCC[C@@H]3OC[C@](OC(=O)c4ccccc4N)(CO1)[C@@H]32 [Compound 3, (2aS,2a^1R,4aS,7aS)-7a-((3E,5E)-hepta-3,5-diene-1-yl)tetrahydro-2H,6H,1,4,7-trioxacyclopenta[cd]indene-2a(3H)-yl-2-aminobenzoate] | about 50% | – | – | – | –
C/C=C/C=C/C=C/[C@]12OCC[C@@H]3OC[C@](OC(=O)c4ccccc4N)(CO1)[C@@H]32 [Compound 4, (2aS,2a^1R,4aS,7aS)-7a-((1E, 3E,5E)-hepta-1,3,5-triene-1-yl)tetrahydro-2H, 6H,1,4,7-trioxacyclopenta[cd]indene-2a(3H)-yl-2-aminobenzoate] | – | about 93% | strong NO production inhibiting effect | less than 80% | cytotoxicity
